Converted amounts (≈) assume the structure as drawn. Values belong to the compound of their own block, whether it stands above or below them.
Assays:
Prothrombin = Prothrombin (Homo sapiens, UniProt P00734); experiment: Inhibition of thrombin (unknown origin)
[1] = molecular target: T1, Signal transducer and activator of transcription 5B (Homo sapiens, UniProt P51692); experiment: Binding affinity to MBP-tagged recombinant STAT5b-SH2 domain (unknown origin) using carboxyfluoresceine-labeled phosphotyrosine octapeptide incubated for 12 hrs by fluorescence polarization assay
T1 sequence (P51692 whole entry): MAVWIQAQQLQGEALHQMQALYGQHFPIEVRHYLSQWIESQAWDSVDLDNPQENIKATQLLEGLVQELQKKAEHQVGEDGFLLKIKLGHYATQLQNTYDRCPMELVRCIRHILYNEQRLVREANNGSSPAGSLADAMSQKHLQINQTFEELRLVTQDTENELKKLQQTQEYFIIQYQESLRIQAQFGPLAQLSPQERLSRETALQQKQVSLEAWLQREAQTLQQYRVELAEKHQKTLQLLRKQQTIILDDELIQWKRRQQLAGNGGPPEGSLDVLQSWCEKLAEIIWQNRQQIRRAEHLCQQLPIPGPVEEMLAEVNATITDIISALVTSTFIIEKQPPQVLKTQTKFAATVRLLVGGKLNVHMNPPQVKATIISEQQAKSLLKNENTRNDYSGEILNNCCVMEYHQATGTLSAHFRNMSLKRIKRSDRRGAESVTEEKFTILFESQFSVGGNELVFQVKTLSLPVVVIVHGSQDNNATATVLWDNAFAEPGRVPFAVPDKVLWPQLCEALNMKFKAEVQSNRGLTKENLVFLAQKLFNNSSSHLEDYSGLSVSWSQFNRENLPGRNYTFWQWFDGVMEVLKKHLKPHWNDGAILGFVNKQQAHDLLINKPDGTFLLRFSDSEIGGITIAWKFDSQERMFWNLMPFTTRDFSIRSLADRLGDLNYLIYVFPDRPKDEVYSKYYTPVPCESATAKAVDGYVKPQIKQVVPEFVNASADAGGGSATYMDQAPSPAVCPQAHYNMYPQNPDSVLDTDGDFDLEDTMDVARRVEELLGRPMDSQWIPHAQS

Carbonic anhydrase 2 = Carbonic anhydrase 2 (Bos taurus, UniProt P00921); experiment: Binding affinity to bovine carbonic anhydrase 2
Chain of Carbonic anhydrase 2 (P00921 whole entry): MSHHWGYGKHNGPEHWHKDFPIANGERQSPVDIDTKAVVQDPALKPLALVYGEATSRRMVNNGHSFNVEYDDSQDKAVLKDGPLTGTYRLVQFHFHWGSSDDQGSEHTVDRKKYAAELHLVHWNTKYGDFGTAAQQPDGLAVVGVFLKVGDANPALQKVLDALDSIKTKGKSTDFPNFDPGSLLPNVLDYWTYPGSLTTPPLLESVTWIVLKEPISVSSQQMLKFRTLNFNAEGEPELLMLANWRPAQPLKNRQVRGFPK

[2] = Biodistribution in RBC of SCID mouse measured after 10 mins; type: ADME, organism-based; details: erythrocyte
[3] = Biodistribution in plasma of SCID mouse measured after 10 mins; type: ADME, organism-based; details: in vivo
[4] = molecular target: T2, Prostaglandin G/H synthase 2 (Homo sapiens, UniProt P35354); experiment: Binding affinity to human COX2
T2 sequence (P35354 whole entry): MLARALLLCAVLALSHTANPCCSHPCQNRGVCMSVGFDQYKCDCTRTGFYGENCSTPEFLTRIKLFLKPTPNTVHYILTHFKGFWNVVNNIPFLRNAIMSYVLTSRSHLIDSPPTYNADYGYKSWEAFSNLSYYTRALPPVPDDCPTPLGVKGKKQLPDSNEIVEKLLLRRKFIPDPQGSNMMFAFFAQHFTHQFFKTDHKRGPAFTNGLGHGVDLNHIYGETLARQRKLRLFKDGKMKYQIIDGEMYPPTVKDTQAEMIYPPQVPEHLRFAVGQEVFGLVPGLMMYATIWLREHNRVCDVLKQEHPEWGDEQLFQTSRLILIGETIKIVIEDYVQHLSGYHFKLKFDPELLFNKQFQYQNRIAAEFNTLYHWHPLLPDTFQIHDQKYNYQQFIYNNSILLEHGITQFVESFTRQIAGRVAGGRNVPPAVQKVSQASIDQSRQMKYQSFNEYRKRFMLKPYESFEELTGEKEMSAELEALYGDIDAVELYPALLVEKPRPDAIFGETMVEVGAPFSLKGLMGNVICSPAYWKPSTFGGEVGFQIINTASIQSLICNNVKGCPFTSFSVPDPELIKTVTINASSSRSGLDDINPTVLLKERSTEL

Rattus norvegicus = species on record: Rattus norvegicus; experiment: animal or person; details: 3 h
Description: Antiinflammatory activity in rat model of carrageenan-induced paw edema model after 3 hrs

Bacterial 70S ribosome = experiment: Binding affinity to Escherichia coli 70S ribosome assessed as reduction in BODIPY-Erythromycin A binding incubated for 1 hr by fluorescence polarization assay; type: subcellular
[5] = molecular target: Bacterial 70S ribosome (Bacteria) (UniProt P0A7V0+P60723+P0AG67+P0A7R5+P0A7R9+P0A7S3+P0A7S9+P0AG59+P0ADZ4+P0A7T3+P0AG63+P0A7T7+P0A7U3+P0A7U7+P68679+P0A7V3+P0A7V8+P0A7W1+P02358+P02359+P0A7W7+P0A7X3+P0A7J3+P0A7J7+P0AA10+P0ADY3+P02413+P0ADY7+P0AG44+P0C018+P0A7K6+P0A7L0+P0A7L3+P0AG48+P61175+P0ADZ0+P60624+P68919+P0A7L8+P0A7M2+P0A7M6+P60422+P0AG51+P0A7N1+P0A7M9+P0A7N4+P0A7N9+P0A7P5+P0A7Q1+Q2EEQ2+P0A7Q6+P60438+P62399+P0AG55+P0A7K2); experiment: Inhibition of 70S ribosome in Escherichia coli cell free system assessed as reduction in protein synthesis by measuring EmGFP synthesis at 1 uM by cell-free translation inhibition method relative to control; type: subcellular
Streptococcus pneumoniae = experiment: Antimicrobial activity against Streptococcus pneumoniae ATCC 49619; type: functional
[6] = Inhibition of Enterovirus A71 3c protease

Ki (Prothrombin): 0.05 µM
Structure (SMILES): N=C(N)c1ccc(NC(C(=O)NCc2ccccc2)c2ccccc2)cc1 (stereo not drawn)

Ki [1]: > 5000 µM
Structure (SMILES): COC(=O)c1nonc1NCn1nnnc1-c1cccc(OC(F)(F)F)c1

Kd (Carbonic anhydrase 2): 0.0005 µM | Drug uptake [2]: 90% | Drug uptake [3]: 10%
Structure (SMILES): CC(C)[C@H](C(=O)NCc1cc([18F])ccn1)n1cc(-c2ccc(S(N)(=O)=O)cc2)nn1

Ki [1]: > 5000 µM
Structure (SMILES): O=C(O)c1nonc1NCn1nnnc1-c1cccc(F)c1

Ki [1]: 0.6 µM
Structure (SMILES): O=C(O)c1nonc1NCn1nnnc1-c1ccc(F)cc1

Ki [1]: > 5000 µM
Structure (SMILES): O=C(O)c1nonc1NCn1nnnc1-c1cccc(C(F)(F)F)c1

Kd [4]: 0.01 µM
Structure (SMILES): Cc1cnc(Cn2cc(-c3onc(-c4ccccc4)c3-c3ccc(S(N)(=O)=O)cc3)nn2)c(C)c1[18F]

IC50 [6]: 0.15 µM
Structure (SMILES): O=C[C@H](C[C@@H]1CCCNC1=O)NC(=O)[C@H](Cc1ccccc1)NC(=O)C(O)CC(=O)c1ccncc1 (stereo partly drawn)

Further lines, the compound ahead of its results:

Structure (SMILES): Nc1nonc1C(=O)O
Ki [1]: 420 µM

Structure (SMILES): Cc1cc(-n2cc(-c3ccc(F)cc3)nn2)n(-c2ccc(S(C)(=O)=O)cc2)n1
ED50 (Rattus norvegicus): 0.44 mg/kg

Structure (SMILES): O=C(O)c1nonc1NCn1cncn1
Ki [1]: > 5000 µM

Structure (SMILES): CC[C@H]1OC(=O)[C@@](C)(F)C(=O)[C@H](C)[C@@H](O[C@@H]2O[C@H](C)C[C@H](N(C)C)[C@H]2O)[C@](C)(OC)C[C@@H](C)C(=O)[C@H](C)[C@H]2N(CCCCn3cc(-c4cccc(N(C)C)c4)nn3)C(=O)O[C@]12C
Kd (Bacterial 70S ribosome): 0.0014 µM | inhibition [5]: 37% | MIC (Streptococcus pneumoniae): 5 ng/mL (≈ 5.73 nM)

Structure (SMILES): O=C(O)c1nonc1NCn1cccn1
Ki [1]: > 5000 µM

Structure (SMILES): CCOC(=O)/C=C/[C@H](C[C@@H]1CCCNC1=O)NC(=O)[C@H](Cc1ccccc1)NC(=O)C=O
IC50 [6]: 16.4 µM
